Measured values published in patent US10329289B2, “6,7-dihydro-5H-pyrrolo[3,4-B]pyridin-5-one allosteric modulators of the M4 muscarinic acetylcholine receptor” (Merck Sharp & Dohme Corp., priority 2015, dated 2019).

biological target: T1, human M4 muscarinic acetylcholine receptor (Homo sapiens, UniProt P08173); assay: human FLIPR-based M4 PAM assay (Ca2+ mobilization, CHO-K1 cells with human M4 receptor and Gαqi5); type: cell-based; details: acetylcholine at 20% of maximum response, read-out: M4 PAM IP
T1 construct: expressed in transfected cells; host or cells: CHO-K1
T1 sequence (P08173 1-479): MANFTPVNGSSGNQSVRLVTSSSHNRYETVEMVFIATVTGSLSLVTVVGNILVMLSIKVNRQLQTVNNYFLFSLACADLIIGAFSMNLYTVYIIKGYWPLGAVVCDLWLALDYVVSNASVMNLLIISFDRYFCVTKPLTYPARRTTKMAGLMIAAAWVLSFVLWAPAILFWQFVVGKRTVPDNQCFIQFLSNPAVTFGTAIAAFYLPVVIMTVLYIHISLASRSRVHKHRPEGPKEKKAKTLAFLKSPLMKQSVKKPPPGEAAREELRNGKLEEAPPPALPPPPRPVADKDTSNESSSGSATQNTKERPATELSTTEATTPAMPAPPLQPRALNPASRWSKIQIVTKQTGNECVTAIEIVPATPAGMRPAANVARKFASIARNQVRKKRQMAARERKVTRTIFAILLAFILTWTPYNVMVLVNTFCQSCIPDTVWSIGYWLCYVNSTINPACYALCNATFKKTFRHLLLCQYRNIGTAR
Procedure, shortened: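 CHO-K1 cells stably expressing human M4 and chimeric Gαqi5 were dye-loaded ~1 h at 37 °C and read for Ca2+ fluorescence. Compound followed by acetylcholine at an EC20 (sometimes an EC70 third addition); inflection point from a 4-parameter logistic fit.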

| Compound | EC50 [nM] |
| --- | --- |
| Cc1cc2c(nc1N1CCC(Oc3ccc(F)c(F)c3)CC1)CNC2=O [Example 81, 2-(4-(3,4-difluorophenoxy)piperi-din-1-yl)-3-methyl-6,7-dihydro-5H-pyrrolo[3,4-b]pyridin-5-one] | 37 |
| Cc1c(N2CC[C@@H](OCC3(C)CC3)[C@H](F)C2)nc2c(c1C)C(=O)N(CCO)C2 [Example 267F, 2-((3R,4R)-3-fluoro-4-((1-methylcyclopropyl)methoxy)piperidin-1-yl)-6-(2-hydroxyethyl)-3,4-dimethyl-6,7-dihydro-5H-pyrrolo[3,4-b]pyridin-5-one] | 17 |
| Cc1nc2cc(OC3CCN(c4nc5c(cc4C)C(=O)NC5)CC3)ccc2o1 [Example 123, 3-methyl-2-(4-((2-methylbenzo[d]oxazol-5-yl)oxy)piperidin-1-yl)-6,7-dihydro-5H-pyrrolo[3,4-b]pyridin-5-one] | 144 |
| CCc1cc2c(nc1N1CCC(Oc3ccc4c(c3)COC4)CC1)CNC2=O [Example 213, 2-(4-((1,3-dihydro-2-benzofuran-5-yl)oxy)piperidin-1-yl)-3-ethyl-6,7-dihydro-5H-pyrrolo[3,4-b]pyridin-5-one] | 61 |
| Cc1cc2c(nc1N1CCC(Oc3ccc4c(c3)C(=O)CO4)CC1)CNC2=O [Example 139A, 3-methyl-2-(4-((3-oxo-2,3-dihydrobenzofuran-5-yl)oxy)piperidin-1-yl)-6,7-dihydro-5H-pyrrolo[3,4-b]pyridin-5-one] | 628 |
| Cc1cc2c(nc1N1CCC(OCC3(C(F)(F)F)CC3)CC1)CNC2=O [Example 189, 3-methyl-2-(4-((1-(trifluoromethyl)cyclo-propyl)methoxy)piperidin-1-yl)-6,7-dihydro-5H-pyrrolo[3,4-b]pyridin-5-one] | 265 |
| Cc1cc2c(nc1N1CC[C@@H](Oc3ccc4c(c3)COC4)[C@@H](F)C1)CNC2=O [Example 40, 2-((3S,4R)-4-((1,3-dihydro-2-benzofuran-5-yl)oxy)-3-fluoropiperidin-1-yl)-3-methyl-6,7-dihydro-5H-pyrrolo[3,4-b]pyridin-5-one] | 17 |
| CCc1cc2c(nc1N1CC[C@@H](Oc3cnc4c(c3)COC4)[C@@H](F)C1)CNC2=O [Example 164A, 2-((3S,4R)-4-((5,7-dihydrofuro[3,4-b]pyridin-3-yl)oxy)-3-fluoropiperidin-1-yl)-3-ethyl-6,7-dihydro-5H-pyrrolo[3,4-b]pyridin-5-one] | 202 |
| Cc1cncc(OC2CCN(c3nc4c(cc3C)C(=O)N(C)[C@H]4CO)CC2)c1 [Example 344, (R)-7-(hydroxymethyl)-3,6-dimethyl-2-(4-((5-methylpyridin-3-yl)oxy)piperidin-1-yl)-6,7-dihydro-5H-pyrrolo[3,4-b]pyridin-5-one] | 1220 |
| Cc1cc2c(nc1N1CCC(OC[C@]3(C)CC3(F)F)CC1)CNC2=O [Example 8B, (S)-2-(4-((2,2-difluoro-1-methylcyclopropyl)methoxy)piperidin-1-yl)-3-methyl-6,7-dihydro-5H-pyrrolo[3,4-b]pyridin-5-one] | 501 |
| Cc1ccc(OC2CCN(c3nc4c(cc3C)C(=O)NC4)CC2)cc1C [Example 119, 2-(4-(3,4-dimethylphenoxy)piper-idin-1-yl)-3-methyl-6,7-dihydro-5H-pyrrolo[3,4-b]pyridin-5-one] | 149 |
| Cc1cc2c(nc1N1CC[C@@H](Oc3ccc4c(cnn4C)c3)[C@@H](F)C1)[C@@H](CO)N(C)C2=O [Example 283, (S)-2-((3S,4R)-3-fluoro-4-((1-methyl-1H-indazol-5-yl)oxy)piperidin-1-yl)-7-(hydroxymethyl)-3,6-dimethyl-6,7-dihydro-5H-pyrrolo[3,4-b]pyridin-5-one] | 44 |
| Cc1c(N2CCC(Oc3ccc4c(c3)C[C@H](O)C4)CC2)nc2c(c1C)C(=O)NC2 [Example 334A, (R)-2-(4-((2-hydroxy-2,3-dihydro-1H-inden-5-yl)oxy)piperidin-1-yl)-3,4-dimethyl-6,7-dihydro-5H-pyrrolo[3,4-b]pyridin-5-one] | 67 |
| Cc1cc2c(nc1N1CCC(Oc3ccc4c(c3)c(C)nn4CCO)CC1)CNC2=O [Example 153, 2-(4-((1-(2-hydroxyethyl)-3-methyl-1H-indazol-5-yl)oxy)piperidin-1-yl)-3-methyl-6,7-dihydro-5H-pyrrolo[3,4-b]pyridin-5-one] | 528 |
| CCOc1ccc(OC2CCN(c3nc4c(cc3C)C(=O)NC4)CC2)cn1 [Example 34, 2-(4-((6-ethoxypyridin-3-yl)oxy)piperidin-1-yl)-3-methyl-6,7-dihydro-5H-pyrrolo[3,4-b]pyridin-5-one] | 26 |
| Cc1cc2c(nc1N1CCC(Oc3ccc4ccc(=O)[nH]c4c3)CC1)CNC2=O [Example 128, 7-((1-(3-methyl-5-oxo-6,7-dihydro-5H-pyrrolo[3,4-b]pyridin-2-yl)piperidin-4-yl)oxy)quinolin-2(1H)-one] | 2370 |
| Cc1cc2c(nc1N1CCC(OC[C@]3(C)C[C@@H]3F)CC1)CNC2=O (single isomer, unassigned) [Example 160A] | 627 |
| Cc1cc2c(nc1N1CC[C@@H](Oc3ccccc3)[C@@H](F)C1)CN(C)C2=O [Example 241, 2-((3S,4R)-3-fluoro-4-phenoxypiperidin-1-yl)-3,6-dimethyl-6,7-dihydro-5H-pyrrolo[3,4-b]pyridin-5-one] | 22 |
| COc1ccc(OC2CCN(c3nc4c(cc3C)C(=O)N(CC3COC3)C4CC3COC3)CC2)cn1 (centres unmarked) [Example 255A, 2-(4-((6-methoxypyridin-3-yl)oxy)piperidin-1-yl)-3-methyl-6,7-bis(oxetan-3-ylmethyl)-6,7-dihydro-5H-pyrrolo[3,4-b]pyridin-5-one] | 803 |
| Cc1cc2c(nc1N1CCC(Oc3ccc([C@H](C)O)cc3)CC1)CNC2=O (single isomer, unassigned) [Example 150B] | 197 |
| Cc1c(N2CCC(Oc3ccc4c(c3)COCC4)CC2)nc2c(c1C)C(=O)N(C)[C@@H]2CO (single isomer, unassigned) [Example 337C] | 42 |
| Cc1cc2c(nc1N1CCC(Oc3ccc4c(cnn4C)c3)CC1)CNC2=O [Example 4, 3-methyl-2-(4-((1-methyl-1H-indazol-5-yl)oxy)piperidin-1-yl)-6,7-dihydro-5H-pyrrolo[3,4-b]pyridin-5-one] | 49 |
| Cc1cc2c(nc1N1CCC(Oc3ccccc3)CC1)CN(C1CC1)C2=O [Example 250, 6-cyclopropyl-3-methyl-2-(4-phenoxypiperidin-1-yl)-6,7-dihydro-5H-pyrrolo[3,4-b]pyridin-5-one] | 149 |
| COc1ccc(O[C@@H]2CCN(c3nc4c(cc3C)C(=O)NC4)C[C@H]2F)cn1 [Example 30, 2-((3R,4R)-3-fluoro-4-((6-methoxypyridin-3-yl)oxy)piperidin-1-yl)-3-methyl-6,7-dihydro-5H-pyrrolo[3,4-b]pyridin-5-one] | 25 |
| COc1ccc(O[C@@H]2CCN(c3nc4c(cc3C)C(=O)NC4)C[C@@H]2F)cn1 [Example 164, 2-((3S,4R)-3-fluoro-4-((6-methoxypyridin-3-yl)oxy)piperidin-1-yl)-3-methyl-6,7-dihydro-5H-pyrrolo[3,4-b]pyridin-5-one] | 82 |
| Cc1cc2c(nc1N1CCC(Oc3ccc4c(c3)COC4)CC1)CN(CC(C)O)C2=O (single isomer, unassigned) [Example 238A, (R) or (S)-2-(4-((1,3-dihydro-2-benzofuran-5-yl)oxy)piperidin-1-yl)-6-(2-hydroxypropyl)-3-methyl-6,7-dihydro-5H-pyrrolo[3,4-b]pyridin-5-one] | 87 |
